Results on 24 molecules are retold here after PubChem BioAssay (NCI).

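These data come from cells grown in 96-well plates and exposed to compound for 48 hours at five concentrations. Here, GI50 denotes the concentration required for 50% inhibition of growth. TGI: total growth inhibition.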

Among the test systems are ACHN renal; OVCAR-8 ovarian; HT29 colon; NCI-H460 lung; COLO 205 colon; K-562 leukemia; SW-620 colon; UO-31 renal.
Common to all, as to test: NCI tumour cell line growth inhibition, 48 h

Take `COc1ccccc1CCc1cc(OC)c(OC)c(OC)c1`: the TGI in the test with ACHN renal, with OVCAR-8 ovarian, in the test on HT29 colon, in the test with NCI-H460 lung, in the test on COLO 205 colon and with K-562 leukemia was greater than 100 µM in each case. Moreover, the results for the TGI in the test on SW-620 colon and with UO-31 renal were greater than 100 µM and 61.3 µM, respectively.

Consider `CCC[CH2][Sn]1([CH2]CCC)[O]CC(CN2CCCC2)[O]1` (stereo not given), for which the GI50 with ACHN renal was 17.3 µM; in the test on OVCAR-8 ovarian, 14.1 µM; with HT29 colon it was 11.1 µM; with NCI-H460 lung, 34.6 µM; in the test with COLO 205 colon it was 18.3 µM; in the test with K-562 leukemia it was 4.24 µM. The GI50 was 11.5 µM in the test with SW-620 colon and 17 µM in the test on UO-31 renal. Moreover, the TGI with ACHN renal was 31.4 µM; in the test on OVCAR-8 ovarian, 29.4 µM; in the test with HT29 colon, 30.7 µM; in the test with NCI-H460 lung, greater than 100 µM; in the test with COLO 205 colon it was 34.3 µM; in the test on K-562 leukemia, 21.4 µM. Also, the TGI with SW-620 colon came out at 27.6 µM; with UO-31 renal it was 31.3 µM.

As for `O=C1C2C3C=C4c5ccccc5N(c5ccccc5)C4(C2C(=O)N1Cc1ccccc1)C1C(=O)N(Cc2ccccc2)C(=O)C31` (stereo not given), the TGI in the test with ACHN renal, in the test on OVCAR-8 ovarian, in the test with HT29 colon, in the test with NCI-H460 lung, with COLO 205 colon and in the test with K-562 leukemia was greater than 100 µM in each case. Further, the TGI in the test on SW-620 colon and in the test on UO-31 renal was greater than 100 µM each time.

As to `NCCCCN(CCCN)/[N+]([O-])=N\O`, the TGI with ACHN renal, in the test on OVCAR-8 ovarian, with HT29 colon, with NCI-H460 lung, in the test with COLO 205 colon and in the test on K-562 leukemia was greater than 100 µM each time. Besides, the TGI with SW-620 colon and in the test with UO-31 renal was greater than 100 µM in each case.

`Cc1cn(C2CC(O)C(CO)O2)c(=O)n2nnnc12` (stereo not given): the TGI with OVCAR-8 ovarian, in the test on HT29 colon, with NCI-H460 lung, with COLO 205 colon, in the test with K-562 leukemia and in the test with SW-620 colon was greater than 100 µM each time. Also, in the test on UO-31 renal, the TGI was greater than 100 µM.

In the case of `CC1(C)C(=O)N(CCCCCCN2C(=O)C(C)(C)c3ccccc32)c2ccccc21`, the TGI in the test on ACHN renal was 97 µM; with OVCAR-8 ovarian it was greater than 100 µM; with HT29 colon it was 43.5 µM; in the test with NCI-H460 lung, greater than 100 µM; in the test on COLO 205 colon, 55.2 µM; in the test on K-562 leukemia it was 55.4 µM. Also, the TGI in the test with SW-620 colon came to 30.3 µM; in the test on UO-31 renal, 92.6 µM.

Regarding `COc1cc(C(C)O)c[n+](CCc2c[nH]c3ccccc23)c1` (stereo not given), the TGI in the test on ACHN renal, in the test on OVCAR-8 ovarian, in the test on HT29 colon, in the test with NCI-H460 lung, in the test with COLO 205 colon and in the test with K-562 leukemia was greater than 100 µM throughout. Also, the TGI in the test on SW-620 colon and in the test on UO-31 renal was greater than 100 µM in each case.

On to `Cc1nc(N)sc1C(=O)/C=C\c1ccc2c(c1)OCO2`, for which the TGI in the test with ACHN renal, with OVCAR-8 ovarian, with HT29 colon, in the test with NCI-H460 lung, in the test with COLO 205 colon and in the test with K-562 leukemia was greater than 100 µM in each case. The TGI in the test with SW-620 colon and with UO-31 renal was greater than 100 µM each time.

Consider `COC(=O)/C(=N\Nc1nnc(C)n1N)C(C#N)c1ccc(Cl)cc1` (stereo not given), for which the TGI with ACHN renal, in the test on OVCAR-8 ovarian, in the test on HT29 colon, in the test with NCI-H460 lung, in the test with COLO 205 colon and in the test on SW-620 colon was greater than 100 µM each time. This molecule displayed a TGI in the test with UO-31 renal greater than 100 µM.

As for `COc1cc2c(cc1OC)C(CC(=O)NN=C(C)C)NCC2` (stereo not given), the TGI with ACHN renal, in the test with OVCAR-8 ovarian, in the test on HT29 colon, in the test on NCI-H460 lung, with COLO 205 colon and in the test with K-562 leukemia was greater than 100 µM in each case. Further, the TGI with SW-620 colon and in the test on UO-31 renal was greater than 100 µM in each case.

For the molecule `COC(=O)C1=C(C)N(NC(=O)OC(C)(C)C)C(=O)C1=P(c1ccccc1)(c1ccccc1)c1ccccc1`, the TGI in the test with ACHN renal, in the test on OVCAR-8 ovarian, in the test on HT29 colon, in the test on NCI-H460 lung, in the test on COLO 205 colon and with K-562 leukemia was greater than 100 µM throughout. The TGI in the test with SW-620 colon and with UO-31 renal was greater than 100 µM throughout.

On to `C[C@@H]1CC(=O)C2CCCC1C2=O` (stereo not given in full), for which the TGI with ACHN renal, in the test on OVCAR-8 ovarian, with HT29 colon, in the test with NCI-H460 lung, in the test with COLO 205 colon and in the test on SW-620 colon was greater than 100 µM throughout. This molecule displayed a TGI with UO-31 renal greater than 100 µM.

As for `CC1(C)SCc2nc3ncccc3n21`, the TGI with ACHN renal, with OVCAR-8 ovarian, with HT29 colon, in the test with NCI-H460 lung, in the test on COLO 205 colon and with K-562 leukemia was greater than 100 µM each time. Further, the TGI in the test with SW-620 colon and in the test on UO-31 renal was greater than 100 µM throughout.

Regarding `Clc1nc(Cl)c(Cl)c(-c2ccccc2)n1`, the TGI in the test with ACHN renal is 33.5 µM; with OVCAR-8 ovarian, greater than 100 µM; with NCI-H460 lung it was greater than 100 µM; in the test on SW-620 colon, 5.62 µM; in the test with UO-31 renal, 34.7 µM.

Take `CC1CC[C@]2(C(=O)O)CCC3(C)C(=CC(=O)C4[C@@]5(C)CCC(=O)C(C)(C)C5CC[C@]43C)[C@@H]2[C@H]1C` (stereo not given in full): the TGI in the test with ACHN renal is greater than 100 µM; in the test with OVCAR-8 ovarian, greater than 100 µM; in the test on HT29 colon, greater than 100 µM; with NCI-H460 lung, greater than 100 µM; in the test with COLO 205 colon, 33.7 µM; with K-562 leukemia, greater than 100 µM. The TGI with SW-620 colon is greater than 100 µM; in the test on UO-31 renal, 38.1 µM.

On to `Cc1cccc(NC(=O)/C(=N\NC(C)(C)C)C2NC(=S)NC2=O)c1C` (stereo not given), for which the TGI in the test with ACHN renal, in the test with OVCAR-8 ovarian, in the test with NCI-H460 lung, in the test on COLO 205 colon, in the test on K-562 leukemia and with SW-620 colon was greater than 100 µM each time. Moreover, in the test with UO-31 renal, the TGI is greater than 100 µM.

With `Cc1ccc(C2=C(c3ccccc3)C(Br)(c3ccc(C)cc3)C(c3ccccc3)=C2c2ccc(C)cc2)cc1`, the TGI in the test with ACHN renal, in the test with OVCAR-8 ovarian, with NCI-H460 lung, with COLO 205 colon, in the test with K-562 leukemia and in the test on SW-620 colon was greater than 100 µM throughout.

Turning to `COc1cc(C=C2C(=O)NC(=O)NC2=O)cc(OC)c1OC`, the TGI in the test with ACHN renal, with OVCAR-8 ovarian, in the test with HT29 colon, with NCI-H460 lung, with COLO 205 colon and with K-562 leukemia was greater than 100 µM in each case. The TGI in the test on SW-620 colon and in the test with UO-31 renal was greater than 100 µM in each case.

On to `O=C(Cc1ccccc1)NN1C(=O)C(Cl)C1c1cc(Br)ccc1O` (stereo not given), for which the TGI with ACHN renal is greater than 100 µM; with OVCAR-8 ovarian, 69.2 µM; with HT29 colon, greater than 100 µM; in the test with NCI-H460 lung, greater than 100 µM; with COLO 205 colon it was greater than 100 µM; in the test on K-562 leukemia, 42.7 µM. Also, the TGI is greater than 100 µM in the test with SW-620 colon and 46.8 µM in the test on UO-31 renal.

As to `CC(C)(C)c1ccc2c(c1)S(=O)(=O)Nc1ccccc1NS(=O)(=O)c1cc(C(C)(C)C)ccc1OCCOCCOCCO2`, the TGI in the test with ACHN renal, in the test with OVCAR-8 ovarian, with HT29 colon, in the test on NCI-H460 lung, with COLO 205 colon and in the test with K-562 leukemia was greater than 100 µM throughout. For the same molecule, the TGI with SW-620 colon and in the test on UO-31 renal was greater than 100 µM throughout.

Turning to `COc1ccc(C(=O)C(C(=O)CCC(=O)Nc2cccc(Cl)c2)c2ccc(OC)cc2)cc1` (stereo not given), the TGI in the test on ACHN renal, in the test on OVCAR-8 ovarian, in the test on HT29 colon, with NCI-H460 lung, in the test with COLO 205 colon and in the test on K-562 leukemia was greater than 100 µM each time. Also, the TGI in the test on SW-620 colon and in the test on UO-31 renal was greater than 100 µM in each case.

Turning to `Cc1ccn2c(c1)nc1nc3ccccc3nc12`, the TGI in the test on ACHN renal, in the test with OVCAR-8 ovarian, in the test with HT29 colon, in the test on NCI-H460 lung, in the test on COLO 205 colon and with K-562 leukemia was greater than 100 µM in each case. The TGI with SW-620 colon and in the test on UO-31 renal was greater than 100 µM each time.

Turning to `C1=CC2SSSC2C1` (stereo not given), the TGI in the test on ACHN renal, with OVCAR-8 ovarian, in the test with HT29 colon, in the test with NCI-H460 lung, in the test with COLO 205 colon and in the test on K-562 leukemia was greater than 100 µM each time. The TGI in the test on SW-620 colon and in the test with UO-31 renal was greater than 100 µM throughout.

With `Nn1c(=O)n(Cc2ccccc2)n(-c2ccccc2)c1=O`, the TGI in the test on ACHN renal, with OVCAR-8 ovarian, in the test with HT29 colon, in the test with NCI-H460 lung, in the test with K-562 leukemia and in the test with SW-620 colon was greater than 100 µM throughout. Moreover, the TGI in the test on UO-31 renal is greater than 100 µM.
